Assay results as given in patent US12459908B2, “Alpha, beta unsaturated methacrylic esters with anti-inflammatory properties” (Sitryx Therapeutics Limited, priority 2020, dated 2025).

What was measured:
[1] = system: NRF2; experiment: NRF2 activation assay (DiscoverX PathHunter NRF2 translocation kit, U2OS cells); assay type: cell-based; details: 6 hours
Procedure: Biological Example 2—NRF2 Activation Assay
Measuring Compound Activation Effects on the Anti-Inflammatory Transcription Factor NRF2 in DiscoverX PathHunter NRF2 Translocation Kit
Potency and efficacy of compounds of formula (I) against the target of interest to activate NRF2 (nuclear factor erythroid 2-related factor 2) were determined using the PathHunter NRF2 translocation kit (DiscoverX). The NRF2 translocation assay was run using an engineered recombinant cell line, utilising enzyme fragment complementation to determine activation of the Keap1-NRF2 protein complex and subsequent translocation of NRF2 into the nucleus. Enzyme activity was quantified using a chemiluminescent substrate consumed following the formation of a functional enzyme upon PK-tagged NRF2 translocation into the nucleus.
Additionally, a defined concentration of DMF was used as the ‘High’ control to normalise test compound activation responses to.
U2OS PathHunter eXpress cells were thawed from frozen prior to plating. Following plating, U2OS cells were incubated for 24 hrs (37° C./5% CO2) in commercial kit provided cell medium.
Following 24 hrs of incubation, plated U2OS cells were directly treated with an appropriate final concentration of compound. […]
Following compound treatment, the U2OS plates were incubated for a further 6 hours (37° C./5% CO2) before detection reagent from the PathHunter NRF2 commercial kit was prepared and added to test plates according to the manufacturer's instructions. Subsequently, the luminescence signal detection was measured in a microplate reader (PHERAstar®, BMG Labtech).
Percentage activation was calculated by normalising the sample data to the high and low controls used within each plate (+/−DMF). Percentage activation/response was then plotted against compound concentration and the 50% activation concentration ([…]) was determined from the plotted concentration-response curve.

[2] = system: cryo-preserved hepatocytes; experiment: Hepatocyte stability assay, mouse cryopreserved hepatocytes; assay type: in vitro ADME; details: Mouse hepatocytes, 10 μM, 60 min
Text: (§1) Biological Example 3—Hepatocyte Stability Assay
(§2) Defrosted cryo-preserved hepatocytes (viability >70%) were used to determine the metabolic stability of a compound via calculation of intrinsic clearance (CIint; a measure of the removal of a compound from the liver in the absence of blood flow and cell binding). Clearance data are particularly important for in vitro work as they can be used in combination with in vivo data to predict the half-life and oral bioavailability of a drug.
(§3) The metabolic stability in hepatocytes assay involves a time-dependent reaction using both positive and negative controls. The cells were pre-incubated at 37° C. and spiked with test compound (and positive control); samples taken at pre-determined time intervals were analysed to monitor the change in concentration of the initial drug compound over 60 minutes. A buffer incubation reaction (with no hepatocytes present) acted as a negative control and two cocktail solutions, containing compounds with known high and low clearance values (verapamil/7-hydroxycoumarin and propranolol/diltiazem), acted as positive controls. • 1. The assay was run with a cell concentration of 0.5×10^6 cells/mL in Leibovitz buffer. • 2. All compounds and controls were run in duplicate. • 3. Compound concentration was 10 μM. • 4. All compounds and controls were incubated with both cells and buffer to show turnover was due to hepatic metabolism. • 5. All wells on the incubation plate had 326.7 μL of either cells or buffer added. • 6. Prior to assay, cell and buffer-only incubation plates were preincubated for 10 mins at 37° C. • 7. The assay was initiated by adding compounds, 3.3 μL of 1 mM in 10% DMSO-90% Buffer; final DMSO concentration is 0.1%. • 8. Samples were taken at regular timepoints (0, 5, 10, 20, 40, 60 min) until 60 mins. • 9. Sample volume was 40 μL and was added to 160 μL of crash solvent (acetonitrile with internal standard) and stored on ice. • 10. At the end of the assay, the crash plates were centrifuged at 3500 rpm for 20 mins at 4° C. • 11. 80 μL of clear supernatant was removed and mixed with 80 μL of deionised water before being analysed by LC-MS/MS.
(§4) Raw LC-MS/MS data was exported to, and analysed in, Microsoft Excel for determination of intrinsic clearance. The percentage remaining of a compound was monitored using the peak area of the initial concentration as 100%. Intrinsic clearance and half-life values were calculated using a graph of the natural log of percentage remaining versus the time of reaction in minutes. Half-life (min) and intrinsic clearance (CIint in μL min^−1 10^−6 cells) values were calculated using the gradient of the graph (the elimination rate constant, k) and Equations 1 and 2.

[3] = system: IL-6; experiment: THP-1 AlphaLISA IL-6 cytokine inhibition assay (differentiated THP-1 cells); assay type: cell-based; details: LPS 24 hr then Nigericin 1 hour
Procedure: (§5) The cytokine inhibition profiles of compounds of formula (I) were determined in a differentiated THP-1 cell assay. All assays were performed in RPMI-1640 growth medium (Gibco), supplemented with 10% fetal bovine serum (FBS; Gibco), 1% penicillin-streptomycin and 1% sodium pyruvate unless specified otherwise. The IL-1p cytokine inhibition assay was run in a background of differentiated THP-1 cells as described below. All reagents described were from Sigma-Aldrich unless specified otherwise. Compounds were prepared as 10 mM DMSO stocks.
(§6) THP-1 cells were expanded as a suspension up to 80% confluence in appropriate growth medium. Cells were harvested, suspended, and treated with an appropriate concentration of phorbol 12-myristate 13-acetate (PMA) over a 72 hr period (37° C./5% CO2).
(§7) Following 72 hrs of THP-1 cell incubation, cellular medium was removed and replaced with fresh growth media containing 1% of FBS. Working concentrations of compounds were prepared separately in 10% FBS treated growth medium and pre-incubated with the cells for 30 minutes (37° C./5% CO2). Following the 30 minute compound pre-incubation, THP-1s were treated with an appropriate concentration of LPS and the cells were subsequently incubated for a 24 hr period (37° C./5% CO2). An appropriate final concentration of Nigericin was then dispensed into the THP-1 plates and incubated for 1 hour (37° C./5% CO2) before THP-1 supernatants were harvested and collected in separate polypropylene 96-well holding plates.
(§8) Reagents from an IL-1β and IL-6 commercial kit (Perkin Elmer) were prepared and run according to the manufacturer's instructions. Subsequently, fluorescence signal detection in a microplate reader was measured (EnVision® Multilabel Reader, Perkin Elmer).
(§9) Percentage inhibition was calculated per cytokine by normalising the sample data to the high and low controls used within each plate (+/−LPS respectively). Percentage inhibition was then plotted against compound concentration and the 50% inhibitory concentration (IC50) was determined from the resultant concentration-response curve.

[4] = system: cryo-preserved hepatocytes; experiment: Hepatocyte stability assay, human cryopreserved hepatocytes; assay type: in vitro ADME; details: Human hepatocytes, 10 μM, 60 min; numeric values
Text: as §1, §2, §3, §4

[5] = system: IL-1β; experiment: THP-1 AlphaLISA IL-1β cytokine inhibition assay (differentiated THP-1 cells); assay type: cell-based; details: LPS 24 hr then Nigericin 1 hour
Procedure: Biological Example 1—THP-1 AlphaLISA IL-1β
Measuring Inhibitory Effects on IL-1, Cytokine Output from THP-1s
as §5, §6, §7, §8, §9

[6] = Hepatocyte stability assay, mouse cryopreserved hepatocytes; assay type: in vitro ADME; details: cryopreserved hepatocytes; Mouse hepatocytes, 10 μM, 60 min; class symbols; read-out: T½
Text: as §1, §2, §3, §4

[7] = Hepatocyte stability assay, human cryopreserved hepatocytes; assay type: in vitro ADME; details: cryopreserved hepatocytes; Human hepatocytes, 10 μM, 60 min; class symbols; read-out: T½
Text: as §1, §2, §3, §4

[8] = Homo sapiens, normalised to DMF high control, class symbols

SMILES	NRF2 activation Emax ([1]; normalised to DMF high control, numeric values)	EC50 ([1]; numeric values)	Clint ([2]; numeric values)	T½ ([2]; numeric values)	IC50 ([3]; numeric values)	Clint [4]	T½ [4]	IC50 ([5]; numeric values)	EC50 ([1]; Homo sapiens, class symbols)	Emax [1, 8]	half-life at 10 μM [6]	Clint ([2]; class symbols)	IC50 ([3]; Homo sapiens, class symbols)	half-life at 10 μM [7]	IC50 ([5]; Homo sapiens, class symbols)
C=C(CC(=O)OCCCCCCCC)C(=O)O [4-octyl itaconate, reference compound]	165%	22 µM	351 μL min^−1 10^−6 cells	4 min	25 µM	401 μL min^−1 10^−6 cells	4 min	33 µM							
C=C(Cc1nc(C2(c3ccc(C(F)(F)F)cc3)CC2)no1)C(=O)O[C@H](CC(=O)O)C(F)(F)F [Example 7, (R)-4,4,4-trifluoro-3-((2-((3-(1-(4-(trifluoromethyl)phenyl)cyclopropyl)-1,2,4-oxadiazol-5-yl)methyl)acryloyl)oxy)butanoic acid]									< 5 µM	3 to 100%	≤ 4 min	+ (+ means ≥351)	< 5 µM	5 to 59 min	< 5 µM
C=C(Cc1nc(C2(c3ccc(C(F)(F)F)cc3)CC2)no1)C(=O)O[C@@H](CC(=O)O)C(F)(F)F [Example 8, (S)-4,4,4-trifluoro-3-((2-((3-(1-(4-(trifluoromethyl)phenyl)cyclopropyl)-1,2,4-oxadiazol-5-yl)methyl)acryloyl)oxy)butanoic acid]									< 5 µM	135 to 165%	≤ 4 min	+ (+ means ≥351)	< 5 µM	5 to 59 min	< 5 µM
C=C(Cc1nc(Cc2ccc(CCCC)cc2)no1)C(=O)O[C@@H](CC(=O)O)C(F)(F)F [Example 10, (S)-3-((2-((3-(4-butylbenzyl)-1,2,4-oxadiazol-5-yl)methyl)acryloyl)oxy)-4,4,4-trifluorobutanoic acid]									< 5 µM	135 to 165%	≤ 4 min	+ (+ means ≥351)	< 5 µM	< 5 min	< 5 µM
C=C(Cc1nc(Cc2ccc(CCCC)cc2)no1)C(=O)OCC(=O)O [Example 13, 2-((2-((3-(4-butylbenzyl)-1,2,4-oxadiazol-5-yl)methyl)acryloyl)oxy)acetic acid]									< 5 µM	166 to 250%	≤ 4 min	+ (+ means ≥351)	< 5 µM	5 to 59 min	< 5 µM
C=C(Cc1nc(Cc2ccc(CCCC)cc2)no1)C(=O)OCCc1nnn[nH]1 [Example 14, 2-(1H-tetrazol-5-yl)ethyl 2-((3-(4-butylbenzyl)-1,2,4-oxadiazol-5-yl)methyl)acrylate]									< 5 µM	135 to 165%	≤ 4 min	+ (+ means ≥351)	< 5 µM	5 to 59 min	< 5 µM
C=C(Cc1nc(Cc2ccc(CCCC)cc2)no1)C(=O)OCc1nnn[nH]1 [Example 16, (1H-tetrazol-5-yl)methyl 2-((3-(4-butylbenzyl)-1,2,4-oxadiazol-5-yl)methyl)acrylate]									< 5 µM	135 to 165%	≤ 4 min	+ (+ means ≥351)	< 5 µM	5 to 59 min	< 5 µM
C=C(Cc1nc(C2(c3ccc(Br)cc3)CC2)no1)C(=O)OCC(=O)O [Example 18, 2-((2-((3-(1-(4-bromophenyl)cyclopropyl)-1,2,4-oxadiazol-5-yl)methyl)acryloyl)oxy)acetic acid]									5 to 10 µM	166 to 250%	5 to 11 min	++ (++ means 95-350)	< 5 µM	60 to 100 min	< 5 µM
C=C(Cc1nc(C2(c3ccc(OC(F)(F)F)cc3)CC2)no1)C(=O)OCC(=O)O [Example 19, 2-((2-((3-(1-(4-(trifluoromethoxy)phenyl)cyclopropyl)-1,2,4-oxadiazol-5-yl)methyl)acryloyl)oxy)acetic acid]									5 to 10 µM	166 to 250%	5 to 11 min	++ (++ means 95-350)	< 5 µM	5 to 59 min	< 5 µM
C=C(Cc1nc(C2(c3ccc(SC(F)(F)F)cc3)CC2)no1)C(=O)OCC(=O)O [Example 22, 2-((2-((3-(1-(4-((trifluoromethyl)thio)phenyl)cyclopropyl)-1,2,4-oxadiazol-5-yl)methyl)acryloyl)oxy)acetic acid]									< 5 µM	135 to 165%	≤ 4 min	+ (+ means ≥351)	< 5 µM	5 to 59 min	< 5 µM
